Laboratory results published in US20260137696A1, “Compositions Comprising an Inhibitor of Galectin-3” (University of Liverpool, priority 2023, published 2026).

Tests used:
Galectin-3 = target: T1, Galectin-3 (Homo sapiens, UniProt P17931); test: Binding affinity to Galectin-3 by Tryptophan Fluorescence Spectroscopy (TFS); details: Galectin-3 10 μM, titration 0 to 224 μM
T1 construct: made in house; host or cells: E. coli
Experimental: The binding affinity of the compounds of Formula I and Formula II to Galectin-3 is assessed by Tryptophan Fluorescence Spectroscopy (TFS). The compounds of Formula I and Formula II bind to Galectin-3 with binding affinity (KD) at low μM;
FIG. 2A and FIG. 2B show analysis of the binding affinity of the compounds of Formula I and Formula II to Galectin-3. The binding affinity of the compounds of Formula I and Formula II to Galectin-3 is assessed by Tryptophan Fluorescence Spectroscopy (TFS). The compounds of Formula I and Formula II bind to Galectin-3 with binding affinity (KD) at low μM.
The binding affinity of the inhibitors to Galectin-3 was determined by Intrinsic Tryptophan Fluorescence Spectroscopy (TFS) exactly as we described recently (Sindrewicz, P., et al., Intrinsic tryptophan fluorescence spectroscopy reliably determines galectin-ligand interactions. Sci Rep, 2019. 9(1): p. 11851, herein incorporated by reference). The Galectin-3 concentration used was 10 μM and the inhibitor titration concentrations were from 0 to 224 μM. DMSO/control buffer (PBS with 2 mM EDTA) titrations were performed and used for background subtraction.
The binding affinities of the compounds of Formula I and compounds of Formula II to Galectin-3 was determined by Tryptophan Fluorescence spectroscopy (TFS) [Sindrewicz, P., et al., Intrinsic tryptophan fluorescence spectroscopy reliably determines galectin-ligand interactions. Scientific Reports, 2019. 9(1): p. 11851, herein incorporated by reference] The Galectin-3 concentration used was 10 μM and the compounds of Formula I and compounds of Formula II titration concentrations were from 0 to 224 μM. DMSO/control buffer (PBS with 2 mM EDTA) titrations were performed and used for background subtraction.

SW620 cells = test: Cancer cell invasion through HUVECs (transwell); type: cell-based, human; details: 10 μM, transwells
Experimental: Invasion of human colon cancer SW620 cells through human umbilical vein endothelial cells (HUVECs) was assessed in transwells in the absence or presence of the compounds of Formula I and Formula II (10 μM).
HUVECs were seeded (1.5×10^4 cells/well) into trans-well insert in 24-well plate and cultured for three days to allow tight monolayer formation (TEER reading >800 Ω/cm2). The integrity of HUVEC monolayer was confirmed by measuring TEER and only monolayers with TEER reading >800 Ω/cm^2 were used for the invasion assay. The HUVEC monolayers were washed with PBS before introduction of ZsGreen- and luciferase transfected SW620Gal3+, SW620Gal-3, or ACA19+ cells (5×10^5 cells/ml) in serum-free DMEM with 0.5 mg/ml BSA, without or with 10 μM the compound of Formula I or the compound of Formula II. ZsGreen- and luciferase-labelled SW620Gal3− and SW620Gal3+ cells (5×10^5 cells/ml) were mixed without or with 10 μM inhibitors for 15 minutes before introduced to the HUVEC monolayer in the transwells for 16-18 hours. The cells at the upper side of the trans-well inserts were gently removed with a cotton swab and the inserts were washed twice with PBS. The cells that migrated to the bottom side of the trans-wells were lysed with PLB buffer for 10 min. The lyse was introduced with Luciferase Assay Reagent for 5 min before luminescence was measured. […]

HUVECs = test: Vascular cell tubule formation (angiogenesis); type: cell-based, human; details: different concentrations
Experimental: Vascular cell tubule formation was assessed with HUVECs in the absence or presence of different concentrations of the compounds of Formula I or Formula II.
Matrigel matrix (50 μl) was added to 96-well plates for 60 min at 37° C. to allow gel formation. HUVEC cells (1×10^5 cells/ml in 1:1 EGM/EBM2 media) was introduced to the plates without or with Galectin-3 (2 μg/ml) or different concentrations of compound inhibitors for 24 hr at 37° C. Endothelial cell tube formation was examined with Leica DMLA Laser Microscope. The total number of branching points and the sum of the lengths of tubes were calculated.

[1] = test system: galectin-3 knockout (Gal3KO) MDA-MB-231 cells; test: Triple-negative breast cancer cell adhesion to basement matrix, galectin-3 knockout; type: cell-based, human; details: galectin-3 knockout by CRISPR/Cas9 (FIG. 15C, 15D)
Experimental: Nanty-six well plates were coated with 50 μl Matrigel (1:30 diluted in PBS) at 37° C. for 1 hour. Cancer cells, pre-labelled with fluorescent die DiI at 37° C. for 20 minutes, were washed twice with PBS and resuspended into 3×10^4 cells/ml in serum-free medium. The matrix-coated 96-well plates were washed twice with PBS before introduction of […] cell suspension with different concentrations of the inhibitors or PBS/DMSO (control) for 1 hour at 37° C. The plates were washed twice with PBS before three randomly selected Field of Views (FOVs) were recorded by fluorescence microscope and number of adhesion cells were quantified by Image J.
MDAMB-231 or PANC-1 cells were seeded into 6-well plate (2×10^5 cells) and cultured at 37° C. for 24 hour. Galectin-3 CRISPR Cas9 Knockout plasmid (2 μg) and galectin-3 HDR plasmid (2 μg) was mixed with Plasmid Transfection Medium (21 μl) for 5 minutes before addition to a mixture of lipofectamine STEM Transfection Reagent (STEM00001) (1 μl) and Plasmid Transfection Medium (25 μl) for 10 minutes at room temperature. The cells in the 6-well plates were washed and introduced with the Plasmid DNA/Lipofectamine STEM Transfection Reagent complex at 37° C. for 24 hours. […] Successful co-transfection of the CRISPR/Cas9 KO Plasmid and HDR Plasmid was confirmed by expression of red fluorescence protein of the cells. […]

T1 sequence (P17931 whole entry): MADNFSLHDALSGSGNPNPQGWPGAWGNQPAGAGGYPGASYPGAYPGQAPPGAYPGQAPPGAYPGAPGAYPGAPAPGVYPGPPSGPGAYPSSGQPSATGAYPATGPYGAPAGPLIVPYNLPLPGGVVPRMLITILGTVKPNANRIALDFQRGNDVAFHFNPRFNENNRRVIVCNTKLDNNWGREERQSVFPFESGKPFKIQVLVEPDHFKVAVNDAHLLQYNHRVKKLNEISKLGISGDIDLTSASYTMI

C[C@H]1COc2c(N3CCN(C)CC3)c(F)cc3c(=O)c(C(=O)NNc4cccc(N)c4)cn1c23 [Formula II]
Kd (Galectin-3): 30 µM | binding affinity (Kd) to Galectin-3 (Galectin-3): low μM | SW620 cell invasion through HUVECs (SW620 cells): significant inhibits | HUVEC tubule formation, tubule numbers (HUVECs): dose-dependently inhibition | HUVEC tubule formation, vascular tubule length (HUVECs): dose-dependently inhibition | adhesion of Gal3KO MDA-MB-231 cells [1]: lost their inhibitory effect

C[C@H]1COc2c(N3CCN(C)CC3)c(F)cc3c(=O)c(C(=O)NNc4ccc(N)cc4)cn1c23 [Formula I]
Kd (Galectin-3): 18 µM | binding affinity (Kd) to Galectin-3 (Galectin-3): low μM | SW620 cell invasion through HUVECs (SW620 cells): significant inhibits | HUVEC tubule formation, tubule numbers (HUVECs): dose-dependently inhibition | HUVEC tubule formation, vascular tubule length (HUVECs): dose-dependently inhibition | adhesion of Gal3KO MDA-MB-231 cells [1]: lost their inhibitory effect
